According to US10751311B2, “Compositions and methods of using modified release solabegron for lower urinary tract symptoms” (VELICEPT THERAPEUTICS, INC., priority 2014, dated 2020):

Columns and labels:
[1] = target: T1, beta-3 adrenoceptor (Rattus norvegicus, UniProt P26255); experiment: Receptor desensitization: CCRC after incubation with the EC90 concentration and PSS washout, EFS-stimulated rat bladder strips; type: cell-based
T1 construct: The bladder longitudinal smooth muscle, with the urothelium still attached were mounted in 25 ml organ baths; from tissue; host or cells: isolated bladder longitudinal smooth muscle strips (urothelium attached) from male CD rats
T1 sequence (P26255 whole entry): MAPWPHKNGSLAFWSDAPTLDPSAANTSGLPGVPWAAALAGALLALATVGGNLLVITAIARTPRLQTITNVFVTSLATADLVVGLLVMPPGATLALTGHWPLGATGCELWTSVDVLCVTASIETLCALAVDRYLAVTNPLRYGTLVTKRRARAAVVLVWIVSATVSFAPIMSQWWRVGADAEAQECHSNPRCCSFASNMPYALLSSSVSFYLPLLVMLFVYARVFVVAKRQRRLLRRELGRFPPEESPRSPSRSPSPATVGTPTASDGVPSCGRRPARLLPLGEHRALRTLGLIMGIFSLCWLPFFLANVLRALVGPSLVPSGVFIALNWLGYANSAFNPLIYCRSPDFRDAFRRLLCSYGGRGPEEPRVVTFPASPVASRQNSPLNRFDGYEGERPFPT
Experimental: (§1) Macroscopically normal bladders obtained from Male CD rats (220-250 g) were used. […] Each bladder was cleaned free of surrounding connective tissue and halved longitudinally. The bladder longitudinal smooth muscle, with the urothelium still attached were mounted in 25 ml organ baths containing physiological saline solution (PSS) (composition: 119.0 mM NaCl, 4.7 mM KCl, 1.2 mM MgSO4, 24.9 mM NaHCO3, 1.2 mM KH2PO4, 2.5 mM CaCl2 and 11.1 mM glucose) supplemented with 1 μM prazosin (α1-adrenoceptor antagonist) and 30 nM ICI118551 (β2-adrenoceptor antagonist), aerated with 95% O2/5% CO2 gas mix, warmed and maintained at approximately 37° C. throughout the experiment. Changes in force production were recorded using transducers. After mounting, the bladder halves were allowed to equilibrate for at least 30 min before they were set to a stable tension of approximately 1.0 g. The tissue was then allowed to equilibrate over at least a 60 min period with washes every 15 min.
In initial experiments the parameters for the EFS were assessed by performing a frequency curve to determine a frequency that would give a response that was approximately 80% of the response seen to 80 mM KCl. Optimal EFS parameters were determined to be: 30 Volts, square pulse of 0.1 ms, train of 4 seconds every 120 seconds, 15 Hz. This frequency was then used to stimulate the tissue for all subsequent experiments. The viability of bladder strips was tested by stimulating the tissue with EFS for minimum of ten minutes.
The bladder muscle strips were incubated with the EC90 determined for each test compound in the pilot studies, for a period of 1 or 3 hr. Following compound incubation, the tissues were washed with PSS for a period of 1, 3 or 6 hr, with washes approximately every 15 min, to remove the drug. At the end of the final wash period the tissues were stimulated with EFS, and left to equilibrate for at least 30 min. A CCRC was then performed in each tissue. Tissue responses were calculated as the mean (SEM) and expressed as percentage of EFS induced tone.
Tissues were incubated with the EC90 concentration of the test compounds for one hr followed by one hr, three hr or six hr of washing with PSS. […] This EFS-induced potentiation of bladder contraction from baseline was not observed with solabegron.
In the next series of experiments, tissues were incubated with the EC90 concentration of the test compounds for three hr followed by either one hr, three hr or six hr of washing with PSS.

[2] = target: T1, beta-3 adrenoceptor; experiment: Determination of EC90 concentration to inhibit EFS-induced contraction in rat isolated bladder (pilot CCRC); type: cell-based; settings: PSS with 1 μM prazosin and 30 nM ICI118551, EFS 15 Hz
Experimental: as §1, with “After mounting, the bladder halves were allowed to equilibrate for at least 30 min before they were set to a stable tension of approximately 1.0 g. The tissue was then allowed to equilibrate over at least a 60 min period with washes every 15 min.” left out
In initial experiments the parameters for the EFS were assessed by performing a frequency curve to determine a frequency that would give a response that was approximately 80% of the response seen to 80 mM KCl. Optimal EFS parameters were determined to be: 30 Volts, square pulse of 0.1 ms, train of 4 seconds every 120 seconds, 15 Hz. […]
Pilot studies to determine EC90 concentrations of the test compounds were performed. […] From the data obtained in these experiments, EC90 concentrations of the test compounds were determined for use in subsequent experiments. […]

[3] = Absorption of solabegron in regions of the GI tract; type: in vivo; settings: solabegron and pharmaceutical salts thereof
Description: (§2) For example, some compounds are differentially absorbed in different regions of the GI tract. […] Under these improved conditions, a second release of solabegron and absorption will result. Additionally, methods for the release of solabegron in the distal GI tract based on pH are presented herein.

[4] = women with moderate to severe OAB; cited from earlier work
[5] = pH-dependent solubility of solabegron; type: physicochemical
Description: as §2

[6] = three hr incubation with EC90 concentration, one hr of washing

Solubility [5] | Compound | Response to agonist (CCRC, reduction of EFS-induced tone) versus vehicle-incubated tissue [1, 6] | EC90 [2] | Absorption in the GI tract [3] | Effect on symptoms of overactive bladder [4] | Safety, tolerability, adverse events compared to placebo [4] | Response to agonist (CCRC, reduction of EFS-induced tone) versus vehicle-incubated tissue ([1]; one hr incubation with EC90 concentration, one hr of washing) | Response to agonist (CCRC, reduction of EFS-induced tone) versus vehicle-incubated tissue ([1]; one hr incubation with EC90 concentration, three hr of washing, higher concentrations) | Response to agonist (CCRC, reduction of EFS-induced tone) versus vehicle-incubated tissue ([1]; three hr incubation with EC90 concentration, three hr of washing, highest concentrations)
 | C[C@H](Cc1ccc2c(c1)OC(C(=O)[O-])(C(=O)[O-])O2)NC[C@H](O)c1cccc(Cl)c1.[Na+].[Na+] [CL-316,243, reference compound] | significantly attenuated | 42 nM |  |  |  |  |  | 
pH-dependent solubility | O=C(O)c1cccc(-c2cccc(NCCNC[C@H](O)c3cccc(Cl)c3)c2)c1 [solabegron, 3′-[(2-{[(2R)-2-(3-chlorophenyl)-2-hydroxyethyl]amino}ethyl)amino]biphenyl-3-carboxylic acid] | significantly attenuated | 1000 nM | optimum absorption in the proximal GI tract | significantly reduce the symptoms of overactive bladder | safe, well-tolerated, and does not demonstrate significant differences in adverse events as compared to placebo | significantly attenuated | significantly attenuated | significantly attenuated
